The values that follow are results of earlier work, collected in patent US11753385B2, “Method for producing kakeromycin and derivatives thereof” (OP BIO FACTORY CO., LTD., priority 2015, dated 2023).

In series [1] the test system is pathogens of candidiasis. The following applies: background statement, in words only.
The test system of series [2] is HepG2 liver cancer cell.
Series [3] deals with PANC-1 pancreas cancer cell.

`CC=C(Cc1ccccc1)C12CC(O)CCN1O2` (stereo not drawn) [kakeromycin]: the “antibacterial activity against pathogens of candidiasis” value in series [1] is “strong antibacterial activity”. Besides, the cytotoxicity entry in series [2] and in series [3] was “shows cytotoxicity” in each case.
